Measured values reported in patent US9456997B2, “Selective inhibition of β1-adrenergic receptors for the treatment of pediatric heart failure” (THE REGENTS OF THE UNIVERSITY OF COLORADO, A BODY CORPORATE, priority 2010, dated 2016).
“Also recorded” adds a separate entry of the source. Read-outs that look alike come from different tables or passages of the source.

Columns and labels:
caspase 3 = experiment: Caspase 3 levels in young mouse hearts by Western blot; format: in vivo; details: young mice, heart, one week of treatment, versus placebo
Protocol: (§1) Western blots were performed as previously described by the inventors. Antibodies for total and phosphorylated PLB were diluted 1:15000 and antibodies for total and phosphorylated Akt were diluted 1:1000 in 1×TBS (20 mM Tris 500 mM NaCl pH 7.5) containing 3% BSA and 0.1% tween and incubated with the blot overnight at 4° C.
(§2) To address hypothesis (iv) above a third study was performed in the young mice to provide evidence of the beneficial effects of exogenous β2-selective agonism with fenoterol. […] The methodology was identical to that outlined in the carvedilol and metoprolol studies above. Protein was isolated from the placebo, fenoterol and isoproterenol treated mouse hearts and phosphorylation of Akt and expression of Caspase 3 was determined to confirm the beneficial effects of fenoterol treatment.

[1] = system: phospholamban (Ser16, Thr17); experiment: Phospholamban phosphorylation in mouse hearts by Western blot; format: in vivo; details: isoproterenol challenged versus control
Protocol: as §1
(§3) Since a primary characteristic of human heart failure is endogenous catecholamine (epinephrine and norepinephrine; full β1 and β2 receptor agonists) excess, they challenged the mice with isoproterenol (an exogeous full β1 and β2 receptor agonist) for 7 days using a subcutaneous miniosmotic pump at a dose (30 mg/kg/day) that has previously been associated with cardiac hypertrophy in adult mice and has been used as a model of cardiac hypertrophy and heart failure in adult […]. Higher doses (120 mg/kg/day) for 14 days cause a dilated heart failure phenotype, providing further evidence that this is an appropriate HF model. Half the animals received the isoproterenol treatment and the other half were treated with placebo pumps filled with normal saline and vitamin C, the vehicle that the isoproterenol is dissolved in. The young and old animals were divided into 2 studies: one for carvedilol treatment and one for metoprolol treatment (the study design for each animal study is illustrated in FIG. 8). […] The amount of water consumed was measured on a daily basis and all groups consumed similar amounts of water. In a second study to further support hypothesis (i) above and provide evidence of a class effect among β1-selective antagonists, young mice were divided into 2 studies one for bisoprolol and one for nebivolol. […] After 7 days of treatment, the hearts were removed and assessed for cardiac growth in response to isoproterenol with or without the β-blocker. Protein was isolated from the hearts of young and old mice in the presence or absence of isopreterenol without any β-blocker treatment assessed for phosphorylation of phospholamban by Western blot as outlined above.

Akt = experiment: Phosphorylation of Akt in young mouse hearts by Western blot; format: in vivo; details: young mice, heart, one week of treatment, versus placebo
Protocol: as §1, §2

[2] = system: isoproterenol challenged young and old mice; experiment: Mouse model of pediatric heart failure: cardiac growth (HW/BW) in response to isoproterenol with or without β-blocker; format: in vivo; details: for pathologic growth response to isoproterenol: isoproterenol 7 days, β-blocker via subcutaneously implanted pump; for heart weight to body weight ratio (HW/BW), response to ISO: older mice; for heart weight to body weight ratio (HW/BW), response to ISO / cardiac growth response to ISO (HW/BW): isoproterenol 30 mg/kg/day 7 days, β-blocker in drinking water, versus same age ISO
Protocol: as §3

[3] = system: HF patients (adult population); details: cited from earlier work
β1 and β2 receptors = details: cited from earlier work; for β1 receptor selectivity: in words
[4] = system: adult mouse models of myocardial infarction; details: adult mouse models of myocardial infarction (Ahmet, 2004; 2005; 2008); cited from earlier work
[5] = system: children with heart failure; details: Pediatric Carvedilol Trial, cited from earlier work

## CC(C)NCC(O)c1ccc(O)c(O)c1 (stereo not shown) [Isoproterenol, isoproterenol]
Caspase 3
  caspase 3 levels: increased
[1]; old (adult) mice
  phospholamban phosphorylation at serine 16: dephosphorylated; also recorded: lower
  phospholamban phosphorylation at threonine 17: dephosphorylated; also recorded: lower
[1]; young mice
  phospholamban phosphorylation at serine 16: unchanged
  phospholamban phosphorylation at threonine 17: unchanged
Akt
  phosphorylation of Akt: decreased
[2]; young and old mice, 30 mg/kg/day for 7 days, subcutaneous miniosmotic pump
  pathologic cardiac growth produced by the agonist: significant pathologic cardiac growth
[2]; young mice, placebo (no β-blocker) treated animals, bisoprolol and nebivolol cohorts
  growth response elicited by the agonist: significant growth response

## OC(CNCC(O)C1CCc2cc(F)ccc2O1)C1CCc2cc(F)ccc2O1 (stereo not shown) [Nebivolol]
[3]; SENIORS trial
  Mortality or Hospitalization Benefit, RR reduction: 14% RR
β1 and β2 receptors
  β1 receptor selectivity: higher selectivity than Metoprolol
[2]; young mice
  pathologic growth response to isoproterenol: significantly suppressed
[2]; young mice, listed as nebivolol
  pathologic growth response to isoproterenol: significant blunting

## CC(Cc1ccc(O)cc1)NCC(O)c1cc(O)cc(O)c1 (stereo not shown) [Fenoterol, fenoterol]
Caspase 3; listed as fenoterol
  caspase 3 levels: maintaining only basal levels; also recorded: did not induce
Akt
  phosphorylation of Akt: induced
Akt; listed as fenoterol
  phosphorylation of Akt: increasing
[4]
  myocardial remodeling and function: improvements in myocardial remodeling and function

## CC(C)NCC(O)COc1ccc(COCCOC(C)C)cc1 (stereo not shown) [Bisoprolol]
[3]; CIBIS trial
  Mortality Benefit, RR reduction: 32% RR
β1 and β2 receptors
  β1 receptor selectivity: higher selectivity than Metoprolol
[2]; young mice
  pathologic growth response to isoproterenol: significantly suppressed
[2]; young mice, listed as bisoprolol
  pathologic growth response to isoproterenol: significant blunting

## COCCc1ccc(OCC(O)CNC(C)C)cc1 (stereo not shown) [Metoprolol]
[3]; MERIT-HF trial
  Mortality Benefit, RR reduction: 34% RR
β1 and β2 receptors
  β1 receptor selectivity: selectively blocks the β1 receptor
[2]
  heart weight to body weight ratio (HW/BW), response to ISO: lower
[2]; young mice
  cardiac growth response to ISO (HW/BW): blunted
[2]; young mice, listed as metoprolol
  cardiac growth response to ISO (HW/BW): demonstrated benefit

## COc1ccccc1OCCNCC(O)COc1cccc2[nH]c3ccccc3c12 (stereo not shown) [Carvedilol]
[3]; CAPRICORN trial
  Mortality Benefit, RR reduction: 23% RR
[3]; COPERNICUS trial
  Mortality Benefit, RR reduction: 35% RR
[3]; US Coreg HF trial
  Mortality Benefit, RR reduction: 65% RR
β1 and β2 receptors; β2 over β1
  blockade of β2 receptors relative to β1 receptors: up to 7 times
[5]; listed as carvedilol
  Outcome (clinical benefit): lack of clinical benefit
[5]
  Outcome (clinical benefit): no clinical benefit
[2]
  heart weight to body weight ratio (HW/BW), response to ISO: lower
[2]; young mice
  cardiac growth response to ISO (HW/BW): no benefit
[2]; young mice, listed as Coreg
  cardiac growth response to ISO (HW/BW): no influence
